Results taken from patent US20240254124A1, “AZAINDOLE ROCK INHIBITORS” (priority 2022, published 2024).

Key:
ROCK2 = ROCK2 (Homo sapiens (Human), UniProt O75116); test: ROCK2 inhibition assay (HotSpot, 33P-ATP); format: biochemical
hERG = hERG (Homo sapiens (Human), UniProt Q12809); test: biochemical
[1] = 24 hour mouse pharmacokinetics; format: in vivo, B6SJLF1/J mice
Description: Groups 2, 3, 4, 6, and 8: Test article was dissolved in a minimal amount of DMSO (Groups 2, 4, 6, 8: 40-50 μL, Group 3: 100 μL), 0.5% methylcellulose was added to final volume, then solution was sonicated for 2 minutes.
Group 7: Test article was dissolved in 100 μL DMSO, saline was added to final volume, then solution was sonicated for 2 minutes.
Groups 1, 5: The test article was administered as a single dose via slow bolus intravenous administration into a lateral tail vein, with a 27G needle.
Groups 2, 4, 6, 7, 8: The test article was administered as a single dose directly to the stomach by oral gavage.
Group 3: The test article was administered as a single dose in two parts with an approximate 1-2-minute rest between due to volume administered.
Approximately 150 μL of blood was collected by tail nick for the first time point and then the maximal volume by cardiac stick for the second, terminal time point in each mouse. The plasma was spun and separated within 30 minutes of collection and stored frozen at −20° C. until shipment.
Prior to the terminal blood collection, CSF was collected. […] The resulting data is shown in Tables 13, 14, 15, 16 and 17 below.

[2] = 24 hour rat pharmacokinetics; details: male
ROCK1 = ROCK1 (Homo sapiens (Human), UniProt Q13464); test: ROCK1 inhibition assay (HotSpot, 33P-ATP); format: biochemical; details: Table 2A; 10 μM ATP
Chain of ROCK1 (Q13464 whole entry): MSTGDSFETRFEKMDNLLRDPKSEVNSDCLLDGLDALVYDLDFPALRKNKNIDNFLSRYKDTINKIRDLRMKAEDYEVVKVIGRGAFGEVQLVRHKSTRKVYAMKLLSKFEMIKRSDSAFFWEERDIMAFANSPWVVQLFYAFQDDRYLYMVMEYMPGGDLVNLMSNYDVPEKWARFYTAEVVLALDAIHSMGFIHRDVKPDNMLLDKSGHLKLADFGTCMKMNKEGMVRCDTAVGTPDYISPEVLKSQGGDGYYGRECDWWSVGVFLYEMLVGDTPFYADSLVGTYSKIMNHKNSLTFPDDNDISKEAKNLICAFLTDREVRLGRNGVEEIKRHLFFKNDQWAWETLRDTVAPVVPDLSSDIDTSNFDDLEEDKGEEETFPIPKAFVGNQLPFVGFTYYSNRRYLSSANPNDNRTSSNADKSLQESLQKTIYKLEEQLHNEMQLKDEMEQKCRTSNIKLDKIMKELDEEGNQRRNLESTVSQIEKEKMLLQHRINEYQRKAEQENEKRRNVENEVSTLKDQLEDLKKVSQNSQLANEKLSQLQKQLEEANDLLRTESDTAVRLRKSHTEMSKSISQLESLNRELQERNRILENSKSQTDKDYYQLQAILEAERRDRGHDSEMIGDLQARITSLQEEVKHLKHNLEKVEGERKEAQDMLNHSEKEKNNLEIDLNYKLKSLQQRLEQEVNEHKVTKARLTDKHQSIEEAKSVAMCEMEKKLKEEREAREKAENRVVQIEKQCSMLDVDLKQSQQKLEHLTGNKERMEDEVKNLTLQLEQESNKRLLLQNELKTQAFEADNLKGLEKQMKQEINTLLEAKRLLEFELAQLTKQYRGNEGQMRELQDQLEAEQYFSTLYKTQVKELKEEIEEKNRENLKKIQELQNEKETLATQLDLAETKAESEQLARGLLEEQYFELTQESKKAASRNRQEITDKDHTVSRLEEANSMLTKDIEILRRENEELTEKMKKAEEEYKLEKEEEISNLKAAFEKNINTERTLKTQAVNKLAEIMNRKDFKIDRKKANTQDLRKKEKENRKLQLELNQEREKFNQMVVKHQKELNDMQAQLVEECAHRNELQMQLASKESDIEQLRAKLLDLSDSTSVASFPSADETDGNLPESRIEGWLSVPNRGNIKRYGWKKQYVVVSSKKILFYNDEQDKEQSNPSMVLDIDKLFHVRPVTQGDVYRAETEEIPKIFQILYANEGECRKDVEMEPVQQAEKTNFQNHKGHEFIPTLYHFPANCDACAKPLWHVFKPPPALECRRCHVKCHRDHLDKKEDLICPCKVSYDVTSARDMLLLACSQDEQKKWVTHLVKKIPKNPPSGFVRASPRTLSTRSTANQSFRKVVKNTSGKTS

PKA = PKA (Homo sapiens (Human), UniProt P17612); test: PKA inhibition assay (HotSpot, 33P-ATP); format: biochemical; details: Table 2B; 10 μM ATP; Compound 1 is geometric mean of multiple experiments
Description: (§1) Compounds as a powder were dissolved in dimethyl sulfoxide to make a 10 mM stock. […] The HotSpot kit employing ^33P-ATP was used with reactions conducted at 10 μM ATP for each tested enzyme. The percent activity relative to DMSO controls for each concentration was then fitted to a curve using GraphPad Prism to determine the IC50. […] Each experiment was run in the same lab with this procedure.

PRKX = PRKX (Homo sapiens (Human), UniProt P51817); test: PRKX inhibition assay (HotSpot, 33P-ATP); format: biochemical; details: Table 2B; 10 μM ATP; Compound 1 is geometric mean of multiple experiments
Chain of PRKX (P51817 whole entry): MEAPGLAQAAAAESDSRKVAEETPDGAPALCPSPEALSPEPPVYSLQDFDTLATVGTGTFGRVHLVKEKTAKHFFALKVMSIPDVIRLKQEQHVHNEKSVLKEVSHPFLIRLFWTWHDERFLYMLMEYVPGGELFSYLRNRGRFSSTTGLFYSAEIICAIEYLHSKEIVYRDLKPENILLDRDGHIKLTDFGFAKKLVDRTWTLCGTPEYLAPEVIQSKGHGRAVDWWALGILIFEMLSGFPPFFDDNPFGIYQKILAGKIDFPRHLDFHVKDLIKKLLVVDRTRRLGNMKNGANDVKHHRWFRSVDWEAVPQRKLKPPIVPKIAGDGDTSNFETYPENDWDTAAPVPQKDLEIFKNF
Description: as §1

Chain of ROCK2 (O75116 whole entry): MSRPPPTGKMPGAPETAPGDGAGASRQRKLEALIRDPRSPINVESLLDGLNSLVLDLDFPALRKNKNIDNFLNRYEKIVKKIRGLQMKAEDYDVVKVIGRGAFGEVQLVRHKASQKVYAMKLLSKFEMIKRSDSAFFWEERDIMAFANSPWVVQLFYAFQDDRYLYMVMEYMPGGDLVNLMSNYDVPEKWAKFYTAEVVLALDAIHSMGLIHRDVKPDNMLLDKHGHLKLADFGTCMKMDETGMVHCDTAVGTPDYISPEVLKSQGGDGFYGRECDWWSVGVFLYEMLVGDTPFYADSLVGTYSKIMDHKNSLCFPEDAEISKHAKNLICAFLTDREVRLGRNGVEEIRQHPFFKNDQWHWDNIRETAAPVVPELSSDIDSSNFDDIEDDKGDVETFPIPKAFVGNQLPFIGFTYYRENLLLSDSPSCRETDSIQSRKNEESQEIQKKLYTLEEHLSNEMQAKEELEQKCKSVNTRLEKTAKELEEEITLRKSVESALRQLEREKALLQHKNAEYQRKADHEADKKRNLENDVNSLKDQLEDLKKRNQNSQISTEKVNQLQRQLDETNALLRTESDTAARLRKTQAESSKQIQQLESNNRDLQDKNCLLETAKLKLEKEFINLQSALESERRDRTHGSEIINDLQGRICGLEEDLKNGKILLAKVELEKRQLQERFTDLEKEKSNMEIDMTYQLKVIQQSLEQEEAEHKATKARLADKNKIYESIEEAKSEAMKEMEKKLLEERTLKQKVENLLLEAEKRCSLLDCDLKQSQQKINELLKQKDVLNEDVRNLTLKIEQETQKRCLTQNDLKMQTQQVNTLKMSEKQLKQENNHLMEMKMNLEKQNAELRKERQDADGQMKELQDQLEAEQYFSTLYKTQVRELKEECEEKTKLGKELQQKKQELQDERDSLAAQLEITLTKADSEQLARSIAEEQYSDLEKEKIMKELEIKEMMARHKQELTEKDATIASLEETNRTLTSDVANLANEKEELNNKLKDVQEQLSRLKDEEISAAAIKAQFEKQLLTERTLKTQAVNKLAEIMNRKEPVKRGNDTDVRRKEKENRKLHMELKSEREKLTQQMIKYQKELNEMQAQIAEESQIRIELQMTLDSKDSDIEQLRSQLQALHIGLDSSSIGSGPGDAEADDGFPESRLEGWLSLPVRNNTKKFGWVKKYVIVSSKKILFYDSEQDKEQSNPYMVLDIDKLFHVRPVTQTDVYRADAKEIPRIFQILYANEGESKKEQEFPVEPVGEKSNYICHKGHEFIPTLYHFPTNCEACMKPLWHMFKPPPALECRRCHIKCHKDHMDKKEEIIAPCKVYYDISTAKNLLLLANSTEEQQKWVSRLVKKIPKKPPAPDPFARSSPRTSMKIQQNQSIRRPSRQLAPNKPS
Chain of hERG (Q12809 whole entry): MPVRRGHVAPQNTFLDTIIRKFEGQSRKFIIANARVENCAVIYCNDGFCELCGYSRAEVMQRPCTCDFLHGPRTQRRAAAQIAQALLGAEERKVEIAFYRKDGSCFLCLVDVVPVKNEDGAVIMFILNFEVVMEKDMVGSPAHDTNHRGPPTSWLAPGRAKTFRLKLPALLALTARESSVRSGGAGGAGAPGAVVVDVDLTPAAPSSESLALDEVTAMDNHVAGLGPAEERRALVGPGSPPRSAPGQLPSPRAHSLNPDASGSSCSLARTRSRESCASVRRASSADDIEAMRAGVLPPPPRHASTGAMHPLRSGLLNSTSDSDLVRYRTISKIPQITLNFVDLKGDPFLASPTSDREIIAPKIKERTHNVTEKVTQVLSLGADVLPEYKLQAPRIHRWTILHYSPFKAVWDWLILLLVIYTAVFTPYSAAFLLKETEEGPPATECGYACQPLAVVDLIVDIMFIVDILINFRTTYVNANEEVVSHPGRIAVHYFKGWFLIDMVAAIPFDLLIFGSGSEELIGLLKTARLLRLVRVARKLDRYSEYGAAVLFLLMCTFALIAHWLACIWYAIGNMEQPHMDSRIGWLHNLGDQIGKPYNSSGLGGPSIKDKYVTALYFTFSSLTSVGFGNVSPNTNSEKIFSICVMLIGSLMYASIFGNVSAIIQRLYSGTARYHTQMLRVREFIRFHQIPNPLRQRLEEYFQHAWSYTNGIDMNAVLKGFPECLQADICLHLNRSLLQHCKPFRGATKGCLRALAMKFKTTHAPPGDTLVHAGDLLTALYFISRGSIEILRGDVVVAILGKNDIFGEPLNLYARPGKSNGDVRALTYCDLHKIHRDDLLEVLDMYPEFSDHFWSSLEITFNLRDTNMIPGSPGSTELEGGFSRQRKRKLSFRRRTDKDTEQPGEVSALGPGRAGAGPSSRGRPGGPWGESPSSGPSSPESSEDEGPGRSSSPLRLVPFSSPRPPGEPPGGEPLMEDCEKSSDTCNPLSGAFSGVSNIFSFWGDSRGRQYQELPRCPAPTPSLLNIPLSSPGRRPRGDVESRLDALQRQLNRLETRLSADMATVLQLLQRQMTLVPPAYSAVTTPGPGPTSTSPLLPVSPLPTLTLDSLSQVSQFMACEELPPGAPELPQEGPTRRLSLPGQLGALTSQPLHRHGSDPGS

concentration required to inhibit half of ROCK2's activity, lower than Fasudil (ROCK2; head-to-head against Fasudil)	AUC0-t/D ([1]; IV 3 mg/kg, male)	AUC0-t/D ([1]; PO 10 mg/kg, female)	AUC0-t/D ([1]; PO 10 mg/kg, male)	AUC0-t/D ([1]; PO 100 mg/kg, male)	Ratio to 10 mg/kg Dose Level, AUC0-∞ ([1]; PO 100 mg/kg, male)	AUC0-t/D ([2]; IV 3 mg/kg)	AUC0-t/D ([2]; PO 10 mg/kg)	IC50 (ROCK1) [nM]	IC50 (PKA) [nM]	IC50 (ROCK2; Table 2A, 10 μM ATP) [nM]	IC50 (PRKX) [nM]	Structure (SMILES)	Kd (hERG) [nM]
more than 50 fold	3380 (h * ng/ml)/(mg/kg)	567 (h * ng/ml)/(mg/kg)	535 (h * ng/ml)/(mg/kg)	441 (h * ng/ml)/(mg/kg)	8.00	1541 (h * ng/ml)/(mg/kg)	261 (h * ng/ml)/(mg/kg)	–	–	–	–	Cn1c(C(=O)NCc2ccccc2F)cc2ccc(-c3cn[nH]c3)nc21 [Compound 1, N-(2-fluorobenzyl)-1-methyl-6-(1H-pyrazol-4-yl)-1H-pyrrolo[2,3-b]pyridine-2-carboxamide]	> 100000
–	–	–	–	–	–	–	–	35.6	103	10.1	32.3	Cc1[nH]ncc1-c1ccc2cc(C(=O)NCc3c(Cl)cccc3C3(O)CC3)[nH]c2n1 [Compound 6, N-(2-chloro-6-(1-hydroxycyclopropyl)benzyl)-6-(5-methyl-1H-pyrazol-4-yl)-1H-pyrrolo[2,3-b]pyridine-2-carboxamide]	–
